molecular target: Human Factor D (Homo sapiens (Human), UniProt P00746); assay: Human Factor D Assay; type: biochemical; conditions: Human Factor D, Table 3; read-out: IC50
Summary of the method: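 Thioesterase activity monitored with Z-L-Lys-SBzl plus Ellman's reagent (DTNB), each 100 μM final, after 5 min room-temperature compound preincubation of 80 nM human serum Factor D in pH 7.5 Tris (50 mM)/1M NaCl.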

Chain of Human Factor D (P00746 26-253): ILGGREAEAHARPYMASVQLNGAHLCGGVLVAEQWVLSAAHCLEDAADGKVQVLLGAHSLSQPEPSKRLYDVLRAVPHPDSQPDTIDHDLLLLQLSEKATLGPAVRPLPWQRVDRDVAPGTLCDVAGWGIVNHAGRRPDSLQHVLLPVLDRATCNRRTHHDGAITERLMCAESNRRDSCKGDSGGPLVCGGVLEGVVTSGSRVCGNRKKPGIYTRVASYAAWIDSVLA

Row | SMILES | IC50 [nM]
1 | CC(=O)c1nn(CC(=O)N2[C@@H]3C[C@@H]3C[C@H]2C(=O)Nc2cccc(OC(F)(F)F)n2)c2ccc(-c3cnc4cc(C)nn4c3)cc12 [Compound 670, (1R,3S,5R)-2-(2-(3-Acetyl-5-(2-methylpyrazolo[1,5-a]pyrimidin-6-yl)-1H-indazol-1-yl)acetyl)-N-(6-(trifluoromethoxy)pyridin-2-yl)-2-azabicyclo[3.1.0]hexane-3-carboxamide] | < 1000
2 | CC(=O)c1nn(CC(=O)N2[C@@H]3C[C@@H]3C[C@H]2C(=O)Nc2cccc(OC(F)(F)F)n2)c2ccc(-c3cnc4ccnn4c3)cc12 [Compound 671, (1R,3S,5R)-2-(2-(3-Acetyl-5-(pyrazolo[1,5-a]pyrimidin-6-yl)-1H-indazol-1-yl)acetyl)-N-(6-(trifluoromethoxy)pyridin-2-yl)-2-azabicyclo[3.1.0]hexane-3-carboxamide] | < 1000
3 | CC(=O)c1nn(CC(=O)N2C[C@H](F)C[C@H]2C(=O)Nc2cccc(OC(F)(F)F)n2)c2ccc(-c3cnc4cc(C5CC5)nn4c3)cc12 [Compound 672, (2S,4R)-1-(2-(3-Acetyl-5-(2-cyclopropylpyrazolo[1,5-a]pyrimidin-6-yl)-1H-indazol-1-yl)acetyl)-4-fluoro-N-(6-(trifluoromethoxy)pyridin-2-yl)pyrrolidine-2-carboxamide] | < 1000
4 | CC(=O)c1nn(CC(=O)N2[C@@H]3C[C@@H]3C[C@H]2C(=O)Nc2cccc(Br)n2)c2ccc(-c3cnc4cc(C5CC5)nn4c3)cc12 [Compound 673, (1R,3S,5R)-2-(2-(3-Acetyl-5-(2-cyclopropylpyrazolo[1,5-a]pyrimidin-6-yl)-1H-indazol-1-yl)acetyl)-N-(6-bromopyridin-2-yl)-2-azabicyclo[3.1.0]hexane-3-carboxamide] | < 1000
5 | CC(=O)c1nn(CC(=O)N2C[C@H](F)C[C@H]2C(=O)Nc2cccc(Br)n2)c2ccc(-c3cnc4cc(C5CC5)nn4c3)cc12 [Compound 674, (2S,4R)-1-(2-(3-Acetyl-5-(2-cyclopropylpyrazolo[1,5-a]pyrimidin-6-yl)-1H-indazol-1-yl)acetyl)-N-(6-bromopyridin-2-yl)-4-fluoropyrrolidine-2-carboxamide] | < 1000
6 | CC(=O)c1nn(CC(=O)N2C[C@H](F)C[C@H]2C(=O)Nc2cnc(C)c(Br)n2)c2ccc(-c3cnc4cc(C5CC5)nn4c3)cc12 [Compound 675, (2S,4R)-1-(2-(3-Acetyl-5-(2-cyclopropylpyrazolo[1,5-a]pyrimidin-6-yl)-1H-indazol-1-yl)acetyl)-N-(6-bromo-5-methylpyrazin-2-yl)-4-fluoropyrrolidine-2-carboxamide] | < 1000
7 | CC(=O)c1nn(CC(=O)N2C[C@H](F)C[C@H]2C(=O)Nc2cc(Cl)cc(Br)n2)c2ccc(-c3cnc4cc(C)nn4c3)cc12 [Compound 676, (2S,4R)-1-(2-(3-acetyl-5-(2-methylpyrazolo[1,5-a]pyrimidin-6-yl)-1H-indazol-1-yl)acetyl)-N-(6-bromo-4-chloropyridin-2-yl)-4-fluoropyrrolidine-2-carboxamide] | < 1000
8 | CC(=O)c1nn(CC(=O)N2C[C@H](F)C[C@H]2C(=O)Nc2ccn(CC(F)(F)F)n2)c2ccc(-c3cnc4cc(C)nn4c3)cc12 [Compound 678, (2S,4R)-1-(2-(3-acetyl-5-(2-methylpyrazolo[1,5-a]pyrimidin-6-yl)-1H-indazol-1-yl)acetyl)-4-fluoro-N-(1-(2,2,2-trifluoroethyl)-1H-pyrazol-3-yl)pyrrolidine-2-carboxamide] | < 1000
9 | COC(=O)Cc1cccc(NC(=O)[C@@H]2C[C@@H](F)CN2C(=O)Cn2nc(C(C)=O)c3cc(-c4cnc5cc(C)nn5c4)ccc32)n1 [Compound 679, methyl 2-(6-((2S,4R)-1-(2-(3-acetyl-5-(2-methylpyrazolo[1,5-a]pyrimidin-6-yl)-1H-indazol-1-yl)acetyl)-4-fluoropyrrolidine-2-carboxamido)pyridin-2-yl)acetate] | < 1000
10 | CC(=O)c1nn(CC(=O)N2C[C@H](F)C[C@H]2C(=O)Nc2cccc(C(C)C)n2)c2ccc(-c3cnc4cc(C)nn4c3)cc12 [Compound 680, (2S,4R)-1-(2-(3-acetyl-5-(2-methylpyrazolo[1.5-a]pyrimidin-6-yl)-1H-indazol-1-yl)acetyl)-4-fluoro-N-(6-isopropylpyridin-2-yl)pyrrolidine-2-carboxamide] | < 1000
11 | CCc1cc2ncc(-c3ccc4c(c3)c(C(C)=O)nn4CC(=O)N3C[C@H](F)C[C@H]3C(=O)Nc3cccc(Br)n3)cn2n1 [Compound 681, (2S,4R)-1-(2-(3-Acetyl-5-(2-ethylpyrazolo[1,5-a]pyrimidin-6-yl)-1H-indazol-1-yl)acetyl)-N-(6-bromopyridin-2-yl)-4-fluoropyrrolidine-2-carboxamide] | < 1000
12 | CC(=O)c1nn(CC(=O)N2C[C@H](F)C[C@H]2C(=O)Nc2cccc(Br)n2)c2ccc(-c3cnc4cc(C(C)(C)C)nn4c3)cc12 [Compound 682, (2S,4R)-1-(2-(3-Acetyl-5-(2-(tert-butyl)pyrazolo[1,5-a]pyrimidin-6-yl)-1H-indazol-1-yl)acetyl)-N-(6-bromopyridin-2-yl)-4-fluoropyrrolidine-2-carboxamide] | < 1000
13 | CC(=O)c1nn(CC(=O)N2C[C@H](F)C[C@H]2C(=O)Nc2cccc(Br)n2)c2ccc(-c3cnc4cc(F)nn4c3)cc12 [Compound 683, (2S,4R)-1-(2-(3-Acetyl-5-(2-fluoropyrazolo[1,5-a]pyrimidin-6-yl)-1H-indazol-1-yl)acetyl)-N-(6-bromopyridin-2-yl)-4-fluoropyrrolidine-2-carboxamide] | < 1000
14 | CC(=O)c1nn(CC(=O)N2C[C@H](F)C[C@H]2C(=O)Nc2cccc(Br)n2)c2ccc(-c3cnc4cc(C(F)(F)F)nn4c3)cc12 [Compound 684, (2S,4R)-1-(2-(3-Acetyl-5-(2-(trifluoromethyl)pyrazolo[1,5-a]pyrimidin-6-yl)-1H-indazol-1-yl)acetyl)-N-(6-bromopyridin-2-yl)-4-fluoropyrrolidine-2-carboxamide] | < 1000
15 | CC(=O)c1cn(CC(=O)N2C[C@H](F)C[C@H]2C(=O)NCc2ccccc2)c2ccc(-c3cnc4cc(C)nn4c3)cc12 [Compound 685, (2S,4R)-1-(2-(3-Acetyl-5-(2-methylpyrazolo[1,5-a]pyrimidin-6-yl)-1H-indol-1-yl)acetyl)-N-benzyl-4-fluoropyrrolidine-2-carboxamide] | < 1000
16 | CC(=O)c1cn(CC(=O)N2C[C@H](F)C[C@H]2C(=O)NCCc2ccccc2)c2ccc(-c3cnc4cc(C)nn4c3)cc12 [Compound 686, (2S,4R)-1-(2-(3-Acetyl-5-(2-methylpyrazolo[1,5-a]pyrimidin-6-yl)-1H-indol-1-yl)acetyl)-4-fluoro-N-phenethylpyrrolidine-2-carboxamide] | < 1000
17 | CC(=O)c1cn(CC(=O)N2C[C@H](F)C[C@H]2C(=O)NCCCc2ccccc2)c2ccc(-c3cnc4cc(C)nn4c3)cc12 [Compound 687, (2S,4R)-1-(2-(3-Acetyl-5-(2-methylpyrazolo[1,5-a]pyrimidin-6-yl)-1H-indol-1-yl)acetyl)-4-fluoro-N-(3-phenylpropyl)pyrrolidine-2-carboxamide] | < 1000
18 | CC(=O)c1cn(CC(=O)N2C[C@H](F)C[C@H]2C(=O)NCCCCc2ccccc2)c2ccc(-c3cnc4cc(C)nn4c3)cc12 [Compound 688, (2S,4R)-1-(2-(3-Acetyl-5-(2-methylpyrazolo[1,5-a]pyrimidin-6-yl)-1H-indol-1-yl)acetyl)-4-fluoro-N-(4-phenylbutyl)pyrrolidine-2-carboxamide] | < 1000

From patent publication US10287301B2 (Achillion Pharmaceuticals, Inc., priority 2015, dated 2019)
